Source: ChEMBL document CHEMBL1121670, “Aporphines. 34. (-)-2,10,11-Trihydroxy-N-n-propylnoraporphine, a novel dopaminergic aporphine alkaloid with anticonvulsant activity” (1981)

Key:
[1] = species: Mus musculus; assay: Evaluated for audiogenic seizures in DBA/ 2 mice, in the protection against paroxysimal EEG at an interval of 30 minutes; assay type: functional; conditions: 0.5 h
[2] = target: Adenylate cyclase type 5 (Homo sapiens) (UniProt O95622); assay: Compound was evaluated for the elicited effect on adenylate cyclase activity in homogenates of carp retina at 10 uM; assay type: functional, tissue-based; conditions: Cyprinus carpio
Adenylate cyclase type 5 (Homo sapiens), sequence (O95622 whole entry, looked up): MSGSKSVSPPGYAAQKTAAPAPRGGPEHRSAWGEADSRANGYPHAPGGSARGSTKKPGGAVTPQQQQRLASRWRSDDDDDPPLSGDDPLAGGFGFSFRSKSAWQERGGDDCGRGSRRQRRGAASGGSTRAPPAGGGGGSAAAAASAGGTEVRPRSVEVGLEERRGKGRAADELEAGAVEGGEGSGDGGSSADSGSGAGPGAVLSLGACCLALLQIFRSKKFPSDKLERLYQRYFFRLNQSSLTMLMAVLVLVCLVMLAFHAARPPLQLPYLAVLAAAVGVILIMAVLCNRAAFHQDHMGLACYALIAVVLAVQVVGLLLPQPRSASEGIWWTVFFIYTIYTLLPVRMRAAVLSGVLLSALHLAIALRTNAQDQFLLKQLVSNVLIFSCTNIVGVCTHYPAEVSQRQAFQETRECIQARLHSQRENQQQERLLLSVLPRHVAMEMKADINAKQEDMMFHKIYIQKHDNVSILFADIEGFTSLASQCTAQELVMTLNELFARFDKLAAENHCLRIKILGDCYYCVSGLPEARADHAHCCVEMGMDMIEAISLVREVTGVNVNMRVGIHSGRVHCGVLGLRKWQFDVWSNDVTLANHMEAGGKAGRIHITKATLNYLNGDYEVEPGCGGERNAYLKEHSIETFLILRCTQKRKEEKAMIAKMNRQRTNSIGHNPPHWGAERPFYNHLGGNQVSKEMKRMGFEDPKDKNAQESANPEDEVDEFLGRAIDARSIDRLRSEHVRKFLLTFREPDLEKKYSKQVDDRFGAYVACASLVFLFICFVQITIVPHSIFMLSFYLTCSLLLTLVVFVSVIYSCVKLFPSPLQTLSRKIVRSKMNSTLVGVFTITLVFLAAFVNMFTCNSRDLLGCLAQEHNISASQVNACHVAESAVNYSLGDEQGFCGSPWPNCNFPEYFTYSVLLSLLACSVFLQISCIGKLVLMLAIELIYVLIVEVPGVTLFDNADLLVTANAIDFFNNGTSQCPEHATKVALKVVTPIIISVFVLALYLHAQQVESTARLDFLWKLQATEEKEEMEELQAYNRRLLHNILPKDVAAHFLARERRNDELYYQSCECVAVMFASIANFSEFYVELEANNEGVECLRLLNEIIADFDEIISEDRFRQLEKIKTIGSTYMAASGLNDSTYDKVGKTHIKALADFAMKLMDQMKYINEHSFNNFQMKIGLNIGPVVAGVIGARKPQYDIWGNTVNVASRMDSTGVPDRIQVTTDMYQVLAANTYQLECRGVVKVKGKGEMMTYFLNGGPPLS

[3] = test system: Papio papio; assay: Duration of protection for abolition of myoclonic responses to photic stimulation in the baboon (Papio papio) at 0.2 mg/kg; Duration of protection ranges from 180-300 min; assay type: functional
[4] = test system: Papio papio; assay: Duration of protection for abolition of myoclonic responses to photic stimulation in the baboon (Papio papio) at 0.5 mg/kg; Duration of protection ranges from 30-45 min; assay type: functional
[5] = species: Mus musculus; assay: Evaluated for audiogenic seizures in DBA/ 2 mice, in the protection against paroxysimal EEG at an interval of 20 minutes; assay type: functional
[6] = species: Mus musculus; assay: Evaluated for audiogenic seizures in DBA/ 2 mice, in the protection against paroxysimal EEG at an interval of 60 minutes; assay type: functional; conditions: 1 h
[7] = test system: Papio papio; assay: Duration of protection for abolition of myoclonic responses to photic stimulation in the baboon (Papio papio) at 0.2 mg/kg; assay type: functional

SMILES: CCCN1CCc2cc(O)cc3c2[C@H]1Cc1ccc(O)c(O)c1-3
- ED50 [1]: 0.72 mg/kg
- Response [2]: 43.4%
- Duration [3]: 180 min

SMILES: CN1CCc2cccc3c2[C@H]1Cc1ccc(O)c(O)c1-3 [APOMORPHINE]
- Duration [4]: 30 min
- ED50 [5]: 0.7 mg/kg

SMILES: CC(C)C[C@H]1C(=O)N2CCC[C@H]2[C@]2(O)O[C@](NC(=O)[C@@H]3C=C4c5cccc6[nH]c(Br)c(c56)C[C@H]4N(C)C3)(C(C)C)C(=O)N12 [BROMOCRIPTINE]
- ED50 [6]: 5 mg/kg

SMILES: CCCN1CCc2cccc3c2[C@H]1Cc1ccc(O)c(O)c1-3 [R-N-PROPYLNORAPOMORPHINE]
- ED50 [1]: 0.075 mg/kg
- Duration [7]: 180 min
